In the oligonucleotide strings, read from the 5' end, every base follows the letter of its sugar. An asterisk marks phosphorothioate; unmarked linkages are phosphodiester. Other units and linkages are bracketed, terminal groups are in braces. A string of capitals states the bases alone. e = 2'-O-(2-methoxyethyl) (MOE); [5mC] = 5-methylcytosine; d = 2'-deoxy (DNA)
Experiments:
mir-15a miRNA = test: pGL3-mir-15a sensor luciferase assay in HeLa cells; format: cell-based, human; conditions: pGL3-mir-15a sensor-expressing HeLa cells
Excerpt: In order to assess the ability of miRNAs to bind predicted miRNA binding sites and regulate the expression of the luciferase reporter, in some embodiments, expression systems based on the pGL3-Control (Promega Corp., Madison Wis.) reporter vector and comprising either a mir-15a, mir-21, or a mir-23b miRNA binding site were developed and used in transient transfections of HeLa cells to determine whether the endogenous mir-15a, mir-21, or mir-23b miRNAs, respectively, could repress luciferase reporter gene expression.
The pGL3-mir-15a sensor plasmid was created by cloning the sequence ([…]; SEQ ID NO: 369), complementary to the mir-15a miRNA, into the Xba site of the pGL3-Control plasmid, placing the potential miRNA-binding site in the 3′UTR of the luciferase reporter. This reporter plasmid was used to transfect HeLa cells and it was observed that the endogenous mir-15a miRNA was able to inhibit luciferase expression from the pGL3-mir-15a sensor plasmid. Thus, to further evaluate the ability of the mir-15a miRNA to bind this target site encoded by the pGL3-mir-15a sensor plasmid, and to assess the ability of oligomeric compounds to interfere with mir-15a-mediated silencing, pGL3-mir-15a sensor-expressing HeLa cells were treated with varying concentrations (3-, 10- or 30 nM) of the following oligomeric compounds: ISIS Number 327951 (SEQ ID NO: 369) is a uniform 2′-MOE compound targeting the mature mir-15a-1 miRNA. ISIS Numbers 356213 (SEQ ID NO: 878), 356215 (SEQ ID NO: 879), 356216 (SEQ ID NO: 880), 356218 (SEQ ID NO: 881), 356221 (SEQ ID NO: 882), 356227 (SEQ ID NO: 883) and 356229 (SEQ ID NO: 884) are phosphorothioate, uniform 2′-MOE oligomeric compounds designed and synthesized to target the entire length of the mir-15a pri-miRNA molecule (described in detail in Example 28, below). […] The data presented in Table 42 are the average of three trials and are presented as percent untreated control (luciferase plasmid only, not treated with oligomeric compound) luciferase expression, normalized to pRL-CMV levels.

B16-F10 cells = test: Cell cycle assay in B16-F10 cells; format: cell-based, mouse; conditions: 150 nM, 48 hours, relative to untreated control
Method: (§1) BJ cells were routinely cultured in MEM high glucose with 2 mM L-glutamine and Earle's BSS adjusted to contain 1.5 g/L sodium bicarbonate and supplemented with 10% fetal bovine serum, 0.1 mM non-essential amino acids and 1.0 mM sodium pyruvate (all media and supplements from Invitrogen Life Technologies, Carlsbad, Calif.). B16-F10 cells were routinely cultured in DMEM high glucose (Invitrogen Life Technologies, Carlsbad, Calif.) supplemented with 10% fetal bovine serum (Invitrogen Life Technologies, Carlsbad, Calif.). T47D cells were cultured in DMEM High glucose media (Invitrogen Life Technologies, Carlsbad, Calif.) supplemented with 10% fetal bovine serum. […] Cells were plated on collagen-coated 24-well plates (Falcon-Primaria #3047, BD Biosciences, Bedford, Mass.) at approximately 50,000 cells per well and allowed to attach to wells overnight.
(§2) In further studies, additional cell lines were treated with oligomeric compounds targeted against miRNAs to assess the effects of each oligomeric compound on cell cycling. BJ, B16, T47D, and HeLa cells were cultured and transfected as described above. […] T47Dp53 cells are T47D cells that have been transfected with and selected for maintenance of a plasmid that expresses a wildtype copy of the p53 gene (for example, pCMV-p53; Clontech, Palo Alto, Calif.), using standard laboratory procedures. BJ cells were treated with 200 nM of each oligomeric compound, and T47D, T47Dp53, HeLa, and B16 cells were treated with 150 nM of each oligomeric compound. The human foreskin fibroblast BJ cell line represents a non-cancer cell line, while HeLa, T47D, T47Dp53 cells and the mouse melanoma cell line B16-F10 represent cancerous cell lines. For comparison, oligomeric compounds ISIS 183891 (SEQ ID NO: 847) and ISIS 285717 ([…]; herein incorporated as SEQ ID NO: 857), both targeting the kinesin-like 1/Eg5 mRNA, involved in cell cycling, were used as positive controls. The random-mer ISIS 29848 was used as a negative control. Additionally, the oligomeric compounds ISIS Number 25690 ([…]; herein incorporated as SEQ ID NO: 858) and ISIS Number 25691 ([…]; herein incorporated as SEQ ID NO: 859), targeted to nucleotides 3051-3070 and 3085-3104, respectively, of the mRNA encoding the Drosha RNase III (GenBank Accession NM_013235.2, incorporated herein as SEQ ID NO: 860) were also tested. ISIS Number 25690 and ISIS Number 25691 are 5-10-52′-MOE gapmer compounds, 20 nucleotides in length, with phosphorothioate internucleoside linkages throughout the oligomeric compound. All cytidine residues are 5-methylcytidines. Transfections were performed using the methods described herein. Cells were prepared for flow cytometry 48-hours after oligonucleotide treatment. Results of these studies are shown in Table 35, where data are expressed as percentage of cells in each phase relative to the untreated control cells in that phase.

T47D cells = test: Cell cycle assay in T47D cells; format: cell-based, human; conditions: 150 nM, 48 hours, relative to untreated control
Method: as §1, §2

Substance | Relative luciferase activity (mir-15a miRNA; 3 nM) | Relative luciferase activity (mir-15a miRNA; 10 nM) | Relative luciferase activity (mir-15a miRNA; 30 nM) | % cells in cell cycle phase G1 (B16-F10 cells) [%] | % cells in cell cycle phase G2/M (B16-F10 cells) [%] | % cells in cell cycle phase S (B16-F10 cells) [%] | % cells in cell cycle phase aneuploid (B16-F10 cells) [%] | % cells in cell cycle phase subG1 (B16-F10 cells) [%] | % cells in cell cycle phase G1 (T47D cells) [%] | % cells in cell cycle phase G2/M (T47D cells) [%] | % cells in cell cycle phase S (T47D cells) [%] | % cells in cell cycle phase aneuploid (T47D cells) [%] | % cells in cell cycle phase subG1 (T47D cells) [%]
327901 (antisense eT*eG*eA*eG*e[5mC]*eT*eA*e[5mC]*eA*eG*eT*eG*e[5mC]*eT*eT*e[5mC]*eA*eT*e[5mC]*eT*e[5mC]*eA) [compound 327901] | 83.6 | 96.6 | 88.2 | – | – | – | – | – | – | – | – | – | –
327933 (antisense eA*eA*eG*eG*eG*eA*eT*eT*e[5mC]*e[5mC]*eT*eG*eG*eG*eA*eA*eA*eA*e[5mC]*eT*eG*eG*eA*e[5mC]) [compound 327933] | – | – | – | 109 | 116 | 84 | 130 | 104 | – | – | – | – | –
342673 (antisense eA*eG*eA*e[5mC]*eT*eA*eG*e[5mC]*eG*eG*eT*eA*eT*e[5mC]*eT*eT*eT*eA*eT*e[5mC]*e[5mC]*e[5mC]) [compound 342673] | 104.5 | 82.6 | 85.7 | – | – | – | – | – | – | – | – | – | –
327951 (antisense e[5mC]*eA*e[5mC]*eA*eA*eA*e[5mC]*e[5mC]*eA*eT*eT*eA*eT*eG*eT*eG*e[5mC]*eT*eG*e[5mC]*eT*eA) [compound 327951] | 151.0 | 207.6 | 137.1 | – | – | – | – | – | – | – | – | – | –
328759 (antisense eG*eA*eG*eG*eG*dA*dT*dT*dG*dT*dA*dT*dG*dA*dA*e[5mC]*eA*eT*e[5mC]*eT) [compound 328759] | – | – | – | 104 | 110 | 91 | 126 | 132 | 86 | 122 | 87 | 223 | 123
327902 (antisense eG*eG*e[5mC]*eT*eG*eT*e[5mC]*eA*eA*eT*eT*e[5mC]*eA*eT*eA*eG*eG*eT*e[5mC]*eA*eG) [compound 327902] | – | – | – | 112 | 98 | 88 | 101 | 151 | 75 | 116 | 120 | 162 | 102
327905 (antisense e[5mC]*eA*eG*eA*e[5mC]*eT*e[5mC]*e[5mC]*eG*eG*eT*eG*eG*eA*eA*eT*eG*eA*eA*eG*eG*eA) [compound 327905] | – | – | – | 107 | 106 | 89 | 94 | 142 | 97 | 103 | 101 | 164 | 81
